Earlier results, collected in USH1286H, “Method for treating peripheral atherosclerotic disease employing a cholesterol lowering drug, an ACE inhibitor, or a combination thereof” (E. R. Squibb & Sons, Inc., priority 1990, dated 1994).

Details: hypercholesterolemic patients; Costa et al., Am. J. Hyperten. 1988

Compound: C[C@H](CS)C(=O)N1CCC[C@H]1C(=O)O [captopril, 1-[(2S)-3-mercapto-2-methylpropionyl]-L-proline]
- increase of HDL: 27%
- reduction of serum cholesterol: -18%
